Results published in the NIST ThermoML archive (doi:10.1021/je901020a).

Tests used:
[1] = refractive index (Na D-line) (dimensionless); xn = mol fraction of the nth substance listed; conditions: 101 kPa, Liquid, Standard Abbe refractometry
[2] = xn = mol fraction of the nth substance listed; conditions: 101 kPa, Liquid; for speed of sound: Pulse-echo method

C1CCCC1 [cyclopentane] + Cc1ccccc1C
Conditions	mass density, [2] [kg/m3]	refractive index, [1]	speed of sound, [2] [m/s]
298.15 K, x1 = 0.045	870.7	1.49951	1342
298.15 K, x1 = 0.0924	865.7	1.49549	1336
298.15 K, x1 = 0.1949	854.1	1.48698	1319
298.15 K, x1 = 0.2932	842.5	1.4791	1304
298.15 K, x1 = 0.3903	830.4	1.47003	1289
298.15 K, x1 = 0.4954	816.6	1.46059	1273
298.15 K, x1 = 0.594	802.9	1.4507	1259
298.15 K, x1 = 0.6958	788.1	1.43935	1244
298.15 K, x1 = 0.7939	773	1.42832	1231
298.15 K, x1 = 0.8926	757.3	1.41649	1217
298.15 K, x1 = 0.9503	747.9	1.40949	1210
298.15 K, x1 = 1	740	1.40292	1204
313.15 K, x1 = 0.072	855	1.48922	1277
313.15 K, x1 = 0.0931	852.7	1.48739	1274
313.15 K, x1 = 0.1919	841.5	1.47936	1257
313.15 K, x1 = 0.2934	829.3	1.47048	1241
313.15 K, x1 = 0.3772	818.8	1.46299	1227
313.15 K, x1 = 0.4855	804.6	1.45278	1209
313.15 K, x1 = 0.5894	790.1	1.44238	1192
313.15 K, x1 = 0.685	776.2	1.43216	1177
313.15 K, x1 = 0.8099	756.9	1.41833	1158
313.15 K, x1 = 0.8912	743.6	1.40862	1146
313.15 K, x1 = 0.9479	734.1	1.402	1138
313.15 K, x1 = 1	725	1.39456	1130

CC1CCCCC1 [methylcyclohexane] + Cc1cc(C)cc(C)c1
x1 = 1
Conditions	mass density, [2] [kg/m3]	refractive index, [1]	speed of sound, [2] [m/s]
298.15 K	765.1	1.42062	1215
313.15 K	751.9	1.41274	1150

CC1CCCCC1 [methylcyclohexane] + Cc1ccc(C)cc1
Conditions	mass density, [2] [kg/m3]	refractive index, [1]	speed of sound, [2] [m/s]
298.15 K, x1 = 0.0513	851.4	1.48906	1303
298.15 K, x1 = 0.0979	846.7	1.48531	1297
298.15 K, x1 = 0.1917	837.2	1.47789	1285
298.15 K, x1 = 0.3009	826.5	1.46944	1272
298.15 K, x1 = 0.3971	817.3	1.46214	1262
298.15 K, x1 = 0.4963	808	1.4548	1252
298.15 K, x1 = 0.5987	798.8	1.44757	1243
298.15 K, x1 = 0.6966	789.9	1.44052	1234
298.15 K, x1 = 0.7958	781.6	1.43389	1227
298.15 K, x1 = 0.8922	773.4	1.42739	1221
298.15 K, x1 = 0.9501	768.9	1.42377	1217
298.15 K, x1 = 1	765	1.42062	1215
313.15 K, x1 = 0.0506	838.4	1.48121	1242
313.15 K, x1 = 0.1051	832.9	1.4771	1234
313.15 K, x1 = 0.204	823.1	1.46914	1221
313.15 K, x1 = 0.3096	812.6	1.46083	1209
313.15 K, x1 = 0.4064	803.4	1.45361	1198
313.15 K, x1 = 0.5061	794	1.44635	1188
313.15 K, x1 = 0.605	785.1	1.43928	1179
313.15 K, x1 = 0.7057	776.2	1.43227	1170
313.15 K, x1 = 0.8112	767.2	1.42509	1162
313.15 K, x1 = 0.9095	759	1.41853	1155
313.15 K, x1 = 0.9599	755	1.41538	1152
313.15 K, x1 = 1	751.9	1.41274	1150

CC1CCCCC1 [methylcyclohexane] + Cc1cccc(C)c1
x1 = 1
Conditions	mass density, [2] [kg/m3]	refractive index, [1]	speed of sound, [2] [m/s]
298.15 K	765	1.42062	1215
313.15 K	751.9	1.41274	1150

CC1CCCCC1 [methylcyclohexane] + Cc1ccccc1C
Conditions	mass density, [2] [kg/m3]	refractive index, [1]	speed of sound, [2] [m/s]
298.15 K, x1 = 0.0558	868.7	1.49758	1340
298.15 K, x1 = 0.0973	863.5	1.49375	1333
298.15 K, x1 = 0.1875	852.9	1.48587	1318
298.15 K, x1 = 0.2979	839.7	1.47605	1300
298.15 K, x1 = 0.4084	827	1.46659	1283
298.15 K, x1 = 0.4965	817.1	1.45929	1271
298.15 K, x1 = 0.5946	806.3	1.45128	1259
298.15 K, x1 = 0.6948	795.5	1.44332	1246
298.15 K, x1 = 0.7944	785.2	1.43568	1235
298.15 K, x1 = 0.8912	775.6	1.42852	1225
298.15 K, x1 = 0.9497	769.9	1.42429	1219
298.15 K, x1 = 1	765	1.42062	1215
313.15 K, x1 = 0.049	856.8	1.49036	1281
313.15 K, x1 = 0.0983	850.8	1.48589	1272
313.15 K, x1 = 0.1972	838.9	1.47705	1255
313.15 K, x1 = 0.2832	828.7	1.46962	1241
313.15 K, x1 = 0.403	814.8	1.45951	1222
313.15 K, x1 = 0.5001	803.8	1.4514	1208
313.15 K, x1 = 0.598	793	1.44349	1195
313.15 K, x1 = 0.6977	782.3	1.43558	1182
313.15 K, x1 = 0.7947	772.2	1.4281	1171
313.15 K, x1 = 0.9013	761.5	1.42003	1160
313.15 K, x1 = 0.9474	756.9	1.4165	1154
313.15 K, x1 = 1	751.9	1.41274	1150
